Reference: patent US20230027066A1 (Urovant Sciences GmbH, priority 2019, published 2023)

System: men and women with overactive bladder
Assay: Phase 3 study of vibegron 75 mg vs placebo and tolterodine ER 4 mg, 12 weeks, efficacy (voiding and urine volume diary)
Assay type: in vivo, human
Conditions: for Daily Urgency Episodes: Vibegron - Placebo LS Means Difference: 75 mg; for Daily Urgency Episodes: Reduction from Baseline at Week 12, LS Mean: vibegron 75 mg, tolterodine ER 4 mg; for Patients with 100% Reduction in UUI from Baseline to Week 12, Unadjusted n (%) / Patients with at Least 75% Reduction in UUI from Baseline to Week 12, Unadjusted n (%) / Patients with 100% Reduction in UUI from Baseline to Week 12, Adjusted n (%) / Patients with at Least 75% Reduction in UUI from Baseline to Week 12, Adjusted n (%): FAS-I; for Patients with 100% Reduction in UUI from Baseline to Week 12, Adjusted n (%) / Patients with at Least 75% Reduction in UUI from Baseline to Week 12, Adjusted n (%): MI for missing values; for 75% UUI responders, Active-Placebo CMH Difference / 100% UUI responders, Active-Placebo CMH Difference: stratified by sex; for Urgency, Change from Baseline LS Mean / Urgency, LS Mean Difference active - Placebo: baseline to Week 12
Method: Enrollment of patients included individuals with OAB Wet (those with UUI, the involuntary loss of urine accompanied by urgency) and OAB Dry (those without UUI). A total of 1,518 patients were randomized across 215 study sites into one of three groups for a 12-week treatment period.
The study consisted of a Screening Period (1 to 5 weeks), a single-blind Run-in Period (2 weeks), a randomized double-blind Treatment Period (12 weeks), and a Follow-up Period (4 weeks).
Tolterodine ER 4 mg was the active control. […] Between the Baseline and Week 12 Visits, patients had study assessments at Week 4 and Week 8.
The Patient Voiding Diary was used by participants (via the eDiary or paper Diary) to record the frequency of daily OAB symptoms including all micturitions, urgency, incontinence, and main reason for incontinence by selecting the respective box for each symptom occurring during the course of a given day and night.
Urine volume data were collected separately by patients using the Urine Volume component of the eDiary, or the paper Urine Volume Chart. The Urine Volume Chart is a tool used in clinical practice and clinical investigation to assess voiding functions over a 24-hour period and is regarded as a useful instrument in the investigation of patients with voiding symptoms. Urine volume may be collected during any one (1) of the 7 Diary Days prior to the visit, and it should be recorded for ˜24 hours starting from the time the patient gets up for the day and continues until the time the patient gets up for the day on the next day.
For the purpose of this study, the number of micturitions was defined as the number of times a patient has voided in the toilet as indicated on the Patient Voiding Diary. Average daily micturitions were calculated using the daily entries in the Patient Voiding Diary, which was completed over the 7 days prior to each study visit. Average daily number of micturitions were calculated as the total number of micturitions that occurred on a Complete Diary Day divided by the number of Complete Diary Days in the Patient Voiding Diary. A complete diary day required confirmation by the patient in the Patient Voiding Diary that all voids and leakages had been recorded for the diary day. Baseline was defined as the average number of micturitions occurring during the last evaluable diary prior to the Baseline Visit.
The number of UUI episodes was defined as the number of times a patient had checked “urge” as the reason for accidental urine leakage. Average daily UUI episodes at each study visit were calculated in the same manner as described above for the micturition endpoint. The UUI endpoint were analyzed using only OAB Wet patients.
For the analysis of the co-primary endpoints (change from baseline in average number of daily micturitions at Week 12 and change from baseline in average number of daily urge urinary incontinence episodes at Week 12, and placebo adjustment of each), a mixed model for repeated measure (MMRM) with restricted maximum likelihood estimation was used. This model corrects for dropout and accounts for the fact that measurements taken on the same patient over time tend to be correlated by using all available information on patients within the same covariate set to derive an estimate of the treatment effect for a dropout-free population. The analysis model for each efficacy endpoint includes terms for treatment, visit, OAB Type (Wet vs Dry), Sex (Female vs Male), Region (US vs Rest of World), baseline score, and interaction of visit by treatment.
Primary inferences were drawn from treatment differences for the changes from baseline derived from the MMRM models at Week 12. As part of secondary objectives, the treatment differences for each post baseline visit were also derived using the same MMRM model. […]

[1] = 50% Total Incontinence Responders, Week 2
[2] = 50% Total Incontinence Responders, Week 4
[3] = 50% Total Incontinence Responders, Week 8
[4] = 50% Total Incontinence Responders, Week 12
[5] = Dry population, baseline to Week 2

O=C(Nc1ccc(C[C@@H]2CC[C@H]([C@H](O)c3ccccc3)N2)cc1)[C@@H]1CCc2nccc(=O)n21 [Vibegron, (6S)-N-[4-[[(2S,5R)−5-[(R)-hydroxy(phenyl)methyl]pyrrolidin−2-yl]methyl]phenyl]−4-oxo−7,8-dihydro−6H-pyrrolo[1,2-a]pyrimidine−6-carboxamide]
Average Volume Voided per Micturition, Mean (SD) [1]: 173.8 (76.89) | Average daily number of urgency episodes, Mean (SD) [1]: 5.62 (3.792) | Change from Baseline in Average Daily Number of Urgency Episodes, LS Mean (SE) [1]: −2.1 (0.15) | Change from Baseline in Average Volume Voided per Micturition, LS Mean [1]: 16.1 (3.79) | Change from baseline in Percent Dry Diary Days, LS Mean [1]: 29.0 (2.11) Percent | Percent Dry Diary Days, Mean (SD) [1]: 34.64 (36.322) Percent | Average Volume Voided per Micturition, Mean (SD) [2]: 176.5 (81.31) | Average daily number of urgency episodes, Mean (SD) [2]: 5.01 (3.889) | Change from Baseline in Average Daily Number of Urgency Episodes, LS Mean (SE) [2]: −2.6 (0.16) | Change from Baseline in Average Volume Voided per Micturition, LS Mean [2]: 18.0 (3.99) | Change from baseline in Percent Dry Diary Days, LS Mean [2]: 37.8 (2.41) Percent | Percent Dry Diary Days, Mean (SD) [2]: 43.31 (41.468) Percent | Average Volume Voided per Micturition, Mean (SD) [3]: 182.0 (84.53) | Average daily number of urgency episodes, Mean (SD) [3]: 4.25 (3.833) | Change from Baseline in Average Daily Number of Urgency Episodes, LS Mean (SE) [3]: −3.4 (0.19) | Change from Baseline in Average Volume Voided per Micturition, LS Mean [3]: 24.2 (4.12) | Change from baseline in Percent Dry Diary Days, LS Mean [3]: 47.4 (2.45) Percent | Percent Dry Diary Days, Mean (SD) [3]: 53.01 (39.898) Percent | Average Volume Voided per Micturition, Mean (SD) [4]: (186.2 (84.24) | Average daily number of urgency episodes, Mean (SD) [4]: 3.67 (3.481) | Change from Baseline in Average Daily Number of Urgency Episodes, LS Mean (SE) [4]: −4.0 (0.20) | Change from Baseline in Average Volume Voided per Micturition, LS Mean [4]: 27.6 (4.24) | Change from baseline in Percent Dry Diary Days, LS Mean [4]: 55.5 (2.37) Percent | Percent Dry Diary Days, Mean (SD) [4]: 61.0 (37.857) Percent | Average Volume Voided per Micturition, Mean (SD) (75% UUI Responders, Week 2): 174.3 (77.29) | Average daily number of urgency episodes, Mean (SD) (75% UUI Responders, Week 2): 5.40 (3.762) | Change from Baseline in Average Volume Voided per Micturition, LS Mean (75% UUI Responders, Week 2): 17.7 (4.28) | Change from baseline in average daily number of urgency episodes, LS Mean (75% UUI Responders, Week 2): −2.2 (0.17) | Average Volume Voided per Micturition, Mean (SD) (75% UUI Responders, Week 4): 178.1 (82.51) | Average daily number of urgency episodes, Mean (SD) (75% UUI Responders, Week 4): 4.72 (3.838) | Change from Baseline in Average Volume Voided per Micturition, LS Mean (75% UUI Responders, Week 4): 20.7 (4.52) | Change from baseline in average daily number of urgency episodes, LS Mean (75% UUI Responders, Week 4): −2.7 (0.19) | Average Volume Voided per Micturition, Mean (SD) (75% UUI Responders, Week 8): 184.2 (87.70) | Average daily number of urgency episodes, Mean (SD) (75% UUI Responders, Week 8): 3.95 (3.742) | Change from Baseline in Average Volume Voided per Micturition, LS Mean (75% UUI Responders, Week 8): 27.2 (4.67) | Change from baseline in average daily number of urgency episodes, LS Mean (75% UUI Responders, Week 8): −3.5 (0.21) | Average Volume Voided per Micturition, Mean (SD) (75% UUI Responders, Week 12): 185.0 (87.89) | Average daily number of urgency episodes, Mean (SD) (75% UUI Responders, Week 12): 3.31 (3.433) | Change from Baseline in Average Volume Voided per Micturition, LS Mean (75% UUI Responders, Week 12): 26.9 (4.87) | Change from baseline in average daily number of urgency episodes, LS Mean (75% UUI Responders, Week 12): −4.2 (0.23) | Daily Urgency Episodes: Vibegron - Placebo LS Means Difference (Age ≥65 years, Week 12): −1.0 | Daily Urgency Episodes: Reduction from Baseline at Week 12, LS Mean (Age ≥65 years): −2.7 | Daily Urgency Episodes: Vibegron - Placebo LS Means Difference (Age ≥75 years, Week 12): −1.7 | Daily Urgency Episodes: Reduction from Baseline at Week 12, LS Mean (Age ≥75 years): −2.6 | Daily Urgency Episodes: Vibegron - Placebo LS Means Difference (All patients, Week 12): −0.7 | Daily Urgency Episodes: Reduction from Baseline at Week 12, LS Mean (All patients): −2.7 | Patients with 100% Reduction in UUI from Baseline to Week 12, Unadjusted n (%) (Baseline Number of UUI <3): 79 (35.4) n (%) | Patients with at Least 75% Reduction in UUI from Baseline to Week 12, Unadjusted n (%) (Baseline Number of UUI <3): 112 (50.2) n (%) | Patients with 100% Reduction in UUI from Baseline to Week 12, Adjusted n (%) (Baseline Number of UUI <3): 68 (30.4) n (%) | Patients with at Least 75% Reduction in UUI from Baseline to Week 12, Adjusted n (%) (Baseline Number of UUI <3): 101 (45.5) n (%) | 75% UUI responders, Active-Placebo CMH Difference (Baseline Number of UUI <3): 7.1 | 100% UUI responders, Active-Placebo CMH Difference (Baseline Number of UUI <3): 2.8 | Patients with 100% Reduction in UUI from Baseline to Week 12, Unadjusted n (%) (Baseline Number of UUI ≥3): 37 (20.6) n (%) | Patients with at Least 75% Reduction in UUI from Baseline to Week 12, Unadjusted n (%) (Baseline Number of UUI ≥3): 99 (55.0) n (%) | Patients with 100% Reduction in UUI from Baseline to Week 12, Adjusted n (%) (Baseline Number of UUI ≥3): 34 (19.1) n (%) | Patients with at Least 75% Reduction in UUI from Baseline to Week 12, Adjusted n (%) (Baseline Number of UUI ≥3): 98 (54.4) n (%) | 75% UUI responders, Active-Placebo CMH Difference (Baseline Number of UUI ≥3): 29.4 | 100% UUI responders, Active-Placebo CMH Difference (Baseline Number of UUI ≥3): 12.3 | Urgency, Change from Baseline LS Mean (Dry population, Age <65): −2.9 (64) | Urgency, LS Mean Difference active - Placebo (Dry population, Age <65): −1.4 | Urgency, Change from Baseline LS Mean (Dry population, Age ≥65): −2.2 (45) | Urgency, LS Mean Difference active - Placebo (Dry population, Age ≥65): −0.5 | Average daily number of urgency episodes, Mean (SD) (Dry population, Week 2): 6.98 (4.732) | Change from baseline in average daily number of urgency episodes, LS Mean (Dry population, Week 2): −1.5 (0.24) | Urgency episodes, Active - Placebo LS Mean Difference (Dry population, Week 2): −0.8 (0.35) | Average daily number of urgency episodes, Mean (SD) (Dry population, Week 4): 6.80 (4.667) | Change from baseline in average daily number of urgency episodes, LS Mean (Dry population, Week 4): −1.8 (0.26) | Urgency episodes, Active - Placebo LS Mean Difference (Dry population, Week 4): −0.9 (0.37) | Average daily number of urgency episodes, Mean (SD) (Dry population, Week 8): 6.39 (4.627) | Change from baseline in average daily number of urgency episodes, LS Mean (Dry population, Week 8): −2.2 (0.30) | Urgency episodes, Active - Placebo LS Mean Difference (Dry population, Week 8): −1.0 (0.44) | Average daily number of urgency episodes, Mean (SD) (Dry population, Week 12): 6.17 (4.958) | Change from baseline in average daily number of urgency episodes, LS Mean (Dry population, Week 12): −2.6 (0.33) | Urgency episodes, Active - Placebo LS Mean Difference (Dry population, Week 12): −1.0 (0.47) | Patients with at Least 50% Reduction in Urgency Episodes, Adjusted (%) [5]: 18.1% | Patients with at Least 50% Reduction in Urgency Episodes, Adjusted n [5]: 22 | Patients with at Least 50% Reduction in Urgency Episodes, Unadjusted (%) [5]: 18.7% | Patients with at Least 50% Reduction in Urgency Episodes, Unadjusted n [5]: 23 | Urgency 50% responders, Active - Placebo CMH Difference [5]: 4.7 | Patients with at Least 50% Reduction in Urgency Episodes, Adjusted (%) (Dry population, baseline to Week 4): 22.4%
